Here are results for 19 molecules from patent EP3057951B1, “METHYLENE LINKED QUINOLINYL MODULATORS OF ROR-GAMMA-T” (Janssen Pharmaceutica NV, priority 2013, dated 2015).

Several values for one entry are separate records, joined by “and”; a condition that tells them apart may be missing. Equal values may be shown once.

Assay [1] addresses T1, wild type human RORγt LBD (Homo sapiens, UniProt P51449).
T1 construct: expressed in transfected cells; host or cells: HEK293T
T1 sequence (P51449 258-518): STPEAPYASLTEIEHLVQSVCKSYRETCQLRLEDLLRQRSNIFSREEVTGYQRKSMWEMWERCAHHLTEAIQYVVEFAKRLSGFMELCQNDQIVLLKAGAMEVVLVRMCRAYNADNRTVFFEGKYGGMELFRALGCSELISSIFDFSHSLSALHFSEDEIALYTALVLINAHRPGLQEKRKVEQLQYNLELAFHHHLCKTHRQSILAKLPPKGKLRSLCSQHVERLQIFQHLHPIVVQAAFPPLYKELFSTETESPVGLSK
Description: RORγt (LBD) Reporter Assay (GAL4-luciferase, HEK293T cells). It is filed as cell-based. Particulars: for IC50: HEK293T cells, value after the comma with ∼, > or < could not be included in the average; for inhibition at 6 µM: HEK-293T, read-out: RORγt (LBD) Reporter Assay, % inhibition @ 6 µM, 6 µM compound concentration; for RORγt (LBD) Reporter Assay, % inhibition @ 6 µM: 6 µM compound concentration.

For assay [2], the target named is T2, wild type human RORγt ligand binding domain (RORyt LBD) (Homo sapiens, UniProt P51449).
T2 construct: His-tag (N); TurboTEV protease cleavage site (ENLYFQG) (N); made in house; host or cells: E. coli (pHIS1, modified pET vector)
T2 sequence (P51449 258-518): T1 sequence (P51449 258-518)
Description: RORγt ThermoFluor assay (thermal shift, binding affinity KD).

A word on the IC50: it is the point on the concentration scale where inhibition reaches its midpoint. The low end stands for higher potency, the high end for lower potency. Broadly, the Kd is the equilibrium constant for the complex coming apart. `COc1nc2ccc(C(O)(c3ccc(C)nc3C)c3cnnn3C)cc2c(Cl)c1Cc1ccc(N(C)C)cc1` (single isomer, unassigned) [Example 24b, (4-Chloro-3-(4-(dimethylamino)benzyl)-2-methoxyquinolin-6-yl)(2,6-dimethylpyridin-3-yl)(1-methyl-1H-1,2,3-triazol-5-yl)methanol]: in assay [1], the IC50 is roughly 220 nM and the inhibition at 6 µM is 92%. Further, in assay [2], the Kd is 130 nM.
Turning to `COc1nc2ccc(C(O)(c3ccc(C)nc3C)c3cnnn3C)cc2c(Cl)c1Cc1ccc(N(C)C)cc1` (single isomer, unassigned) [Example 24c, (4-Chloro-3-(4-(dimethylamino)benzyl)-2-methoxyquinolin-6-yl)(2,6-dimethylpyridin-3-yl)(1-methyl-1H-1,2,3-triazol-5-yl)methanol], the “RORγt (LBD) Reporter Assay, % inhibition @ 6 µM” value (shortened to “RORγt … % inhibition @ 6 µM”) in assay [1] (6 µM) was 97%. For the same molecule, the IC50 in assay [1] amounted to 25 nM. Further, the Kd in assay [2] came to 0.32 nM.
In the case of `CCc1nc2ccc(C(O)(c3cnnn3C)c3cnc(C)n3C)cc2c(Cl)c1Cc1ccc(C(F)(F)F)cc1` (single isomer, unassigned) [Example 25b, (4-Chloro-2-ethyl-3-(4-(trifluoromethyl)benzyl)quinolin-6-yl)(1,2-dimethyl-1H-imidazol-5-yl)(1-methyl-1H-1,2,3-triazol-5-yl)methanol], in assay [1], the IC50 was 1.9 nM and < 3 nM; the inhibition at 6 µM came to 100%. In addition, the Kd in assay [2] worked out at 0.01 nM.
As to `CCc1nc2ccc(C(O)(c3cnnn3C)c3cnc(C)n3C)cc2c(Cl)c1Cc1ccc(C(F)(F)F)cc1` (single isomer, unassigned) [Example 25c, (4-Chloro-2-ethyl-3-(4-(trifluoromethyl)benzyl)quinolin-6-yl)(1,2-dimethyl-1H-imidazol-5-yl)(1-methyl-1H-1,2,3-triazol-5-yl)methanol], the “RORγt … % inhibition @ 6 µM” value in assay [1] (6 µM) came to 99%. Also, the IC50 in assay [1] stood at 2.1 nM. The Kd in assay [2] turned out to be 0.02 nM.
For the molecule `COc1nc2ccc(C(O)(c3ccc(C#N)cc3)c3cncn3C)cc2c(Cl)c1Cc1ccc(C(F)(F)F)nc1` (single isomer, unassigned) [Example 38b, 4-((4-Chloro-2-methoxy-3-((6-(trifluoromethyl)pyridin-3-yl)methyl)quinolin-6-yl)(hydroxy)(1-methyl-1H-imidazol-5-yl)methyl)benzonitrile], in assay [1], the IC50 worked out at 250 nM and the inhibition at 6 µM is 94%. Also, the Kd in assay [2] was 150 nM.
As for `COc1nc2ccc(C(O)(c3ccc(C#N)cc3)c3cncn3C)cc2c(Cl)c1Cc1ccc(C(F)(F)F)nc1` (single isomer, unassigned) [Example 38c, 4-((4-Chloro-2-methoxy-3-((6-(trifluoromethyl)pyridin-3-yl)methyl)quinolin-6-yl)(hydroxy)(1-methyl-1H-imidazol-5-yl)methyl)benzonitrile], the “RORγt … % inhibition @ 6 µM” value in assay [1] (6 µM) was determined as 98%. In assay [1], it took 14 nM to reach half-maximal inhibition (IC50). Besides, in assay [2], the Kd is 5.2 nM.
As for `COc1nc2ccc(C(O)(c3ccc(C)nc3C)c3cnnn3C)cc2c(C#N)c1Cc1ccc(C(F)(F)F)nc1` (single isomer, unassigned) [Example 41b, 6-((2,6-Dimethylpyridin-3-yl)(hydroxy)(1-methyl-1H-1,2,3-triazol-5-yl)methyl)-2-methoxy-3-((6-(trifluoromethyl)pyridin-3-yl)methyl)quinoline-4-carbonitrile], in assay [1], half-maximal inhibition (IC50) was put at 1600 nM and the inhibition at 6 µM was determined as 92%. Besides, in assay [2], the Kd amounted to 1200 nM.
As to `COc1nc2ccc(C(O)(c3ccc(C)nc3C)c3cnnn3C)cc2c(C#N)c1Cc1ccc(C(F)(F)F)nc1` (single isomer, unassigned) [Example 41c, 6-((2,6-Dimethylpyridin-3-yl)(hydroxy)(1-methyl-1H-1,2,3-triazol-5-yl)methyl)-2-methoxy-3-((6-(trifluoromethyl)pyridin-3-yl)methyl)quinoline-4-carbonitrile], the “RORγt … % inhibition @ 6 µM” value in assay [1] (6 µM) was 99%. Further, in assay [1], the half-maximal inhibitory concentration (IC50) was 5.9 nM. In assay [2], the dissociation constant (Kd) worked out at 6.4 nM.
For `COc1nc2ccc(C(O)(c3cnnn3C)c3cnc(C)n3C)cc2c(Cl)c1Cc1ccc(C(F)(F)F)nc1` (single isomer, unassigned) [Example 43b, (4-Chloro-2-methoxy-3-((6-(trifluoromethyl)pyridin-3-yl)methyl)quinolin-6-yl)(1,2-dimethyl-1H-imidazol-5-yl)(1-methyl-1H-1,2,3-triazol-5-yl)methanol], in assay [1], inhibition was half-maximal at 10 nM (IC50) and the inhibition at 6 µM worked out at 98%. For the same molecule, the dissociation constant (Kd) in assay [2] came to 0.49 nM.
For `COc1nc2ccc(C(O)(c3cnnn3C)c3cnc(C)n3C)cc2c(Cl)c1Cc1ccc(C(F)(F)F)nc1` (single isomer, unassigned) [Example 43c, (4-Chloro-2-methoxy-3-((6-(trifluoromethyl)pyridin-3-yl)methyl)quinolin-6-yl)(1,2-dimethyl-1H-imidazol-5-yl)(1-methyl-1H-1,2,3-triazol-5-yl)methanol], the “RORγt … % inhibition @ 6 µM” value in assay [1] (6 µM) came to 99%. In addition, 5.3 nM corresponded to half-maximal inhibition in assay [1] (IC50). In addition, in assay [2], the Kd is 0.96 nM.
As for `COc1nc2ccc(C(O)(c3cnnn3C)c3cnc(C)n3C)cc2c(C#N)c1Cc1ccc(C(F)(F)F)nc1` (single isomer, unassigned) [Example 44b, 6-((1,2-Dimethyl-1H-imidazol-5-yl)(hydroxy)(1-methyl-1H-1,2,3-triazol-5-yl)methyl)-2-methoxy-3-((6-(trifluoromethyl)pyridin-3-yl)methyl)quinoline-4-carbonitrile], in assay [1], the IC50 stood at 24 nM and the inhibition at 6 µM worked out at 99%. Moreover, in assay [2], the Kd is 5.2 nM.
With `COc1nc2ccc(C(O)(c3cnnn3C)c3cnc(C)n3C)cc2c(C#N)c1Cc1ccc(C(F)(F)F)nc1` (single isomer, unassigned) [Example 44c, 6-((1,2-Dimethyl-1H-imidazol-5-yl)(hydroxy)(1-methyl-1H-1,2,3-triazol-5-yl)methyl)-2-methoxy-3-((6-(trifluoromethyl)pyridin-3-yl)methyl)quinoline-4-carbonitrile], in assay [1], the “RORγt … % inhibition @ 6 µM” value came out at 99% and half-maximal inhibition (IC50) required 19 nM. In assay [2], the Kd amounted to 9 nM.
Take `COc1nc2ccc(C(O)(c3ccc(F)cc3)C3CCN(C(C)=O)CC3)cc2c(Cl)c1Cc1ccc(F)cc1` (single isomer, unassigned) [Example 51b, 1-(4-((4-Chloro-3-(4-fluorobenzyl)-2-methoxyquinolin-6-yl)(4-fluorophenyl)(hydroxy)methyl)piperidin-1-yl)ethanone]: the “RORγt … % inhibition @ 6 µM” value in assay [1] (6 µM) was 46%. This molecule came in with an IC50 in assay [1] of 170 nM. Besides, in assay [2], the Kd was 3.9 nM.
Take `COc1nc2ccc(C(O)(c3ccc(F)cc3)C3CCN(C(C)=O)CC3)cc2c(Cl)c1Cc1ccc(F)cc1` (single isomer, unassigned) [Example 51c, 1-(4-((4-Chloro-3-(4-fluorobenzyl)-2-methoxyquinolin-6-yl)(4-fluorophenyl)(hydroxy)methyl)piperidin-1-yl)ethanone]: in assay [1] (6 µM), the “RORγt … % inhibition @ 6 µM” value is on record as 4%. In assay [1], this molecule yielded an IC50 greater than 6000 nM. In addition, the Kd in assay [2] is 200 nM.
Regarding `Cn1cncc1C(O)(c1ccc(C(F)(F)F)nc1)c1ccc2nc(C#N)c(Cc3ccc(F)cc3)c(C#N)c2c1` (single isomer, unassigned) [Example 53b, 3-(4-Fluorobenzyl)-6-(hydroxy(1-methyl-1H-imidazol-5-yl)(6-(trifluoromethyl)pyridin-3-yl)methyl)quinoline-2,4-dicarbonitrile], the “RORγt … % inhibition @ 6 µM” value in assay [1] (6 µM) was 32%. Also, the IC50 in assay [1] is greater than 6000 nM. In addition, the Kd in assay [2] was determined as 1.2 nM.
Take `Cn1cncc1C(O)(c1ccc(C(F)(F)F)nc1)c1ccc2nc(C#N)c(Cc3ccc(F)cc3)c(C#N)c2c1` (single isomer, unassigned) [Example 53c, 3-(4-Fluorobenzyl)-6-(hydroxy(1-methyl-1H-imidazol-5-yl)(6-(trifluoromethyl)pyridin-3-yl)methyl)quinoline-2,4-dicarbonitrile]: the “RORγt … % inhibition @ 6 µM” value in assay [1] (6 µM) is reported as 74%. Further, inhibition in assay [1] was half-maximal at 680 nM (IC50). In addition, the Kd in assay [2] is 48 nM.
On to `COc1nc2ccc(C(O)(c3ccc(Cl)cc3)c3cncn3C)cc2c(C#N)c1Cc1ccc(C(F)(F)F)cc1` (single isomer, unassigned) [Example 55b, 6-((4-Chlorophenyl)(hydroxy)(1-methyl-1H-imidazol-5-yl)methyl)-2-methoxy-3-(4-(trifluoromethyl)benzyl)quinoline-4-carbonitrile], for which, in assay [1], half-maximal inhibition (IC50) required 500 nM and the inhibition at 6 µM stood at 96%. Also, the Kd in assay [2] was determined as 530 nM.
In the case of `COc1nc2ccc(C(O)(c3ccc(Cl)cc3)c3cncn3C)cc2c(C#N)c1Cc1ccc(C(F)(F)F)cc1` (single isomer, unassigned) [Example 55c, 6-((4-Chlorophenyl)(hydroxy)(1-methyl-1H-imidazol-5-yl)methyl)-2-methoxy-3-(4-(trifluoromethyl)benzyl)quinoline-4-carbonitrile], in assay [1] (6 µM), the “RORγt … % inhibition @ 6 µM” value amounted to 100%. Moreover, the IC50 in assay [1] was 93 nM. Also, the dissociation constant Kd in assay [2] came to 4.5 nM.
As to `COc1nc2ccc(C(O)(c3cnnn3C)c3cnc(C)n3C)cc2c(C#N)c1Cc1ccc(F)cc1` (single isomer, unassigned) [Example 66b, 6-((1,2-Dimethyl-1H-imidazol-5-yl)(hydroxy)(1-methyl-1H-1,2,3-triazol-5-yl)methyl)-3-(4-fluorobenzyl)-2-methoxyquinoline4-carbonitrile], in assay [1], half-maximal inhibition (IC50) required 3.1 nM and the inhibition at 6 µM stood at 82%. In assay [2], the Kd was found to be 1.1 nM.
